Laboratory results taken from patent US12516364B2, “Device for testing bacterium, and method for testing bacterium” (Hitachi High-Tech Corporation, priority 2018, dated 2026).

Test system: Escherichia coli
Test: antibacterial susceptibility determination from microscopic images (luminance value and area of bacteria)
Format: cell-based
Conditions: ampicillin 2 μg/mL; 0 to 360 minutes; with or without minimum filter; growth has not occurred over the entire image
Procedure: The test plate 102 has a plurality of wells, and each well holds a medium component that facilitate the growth of bacteria and an antibacterial drug to be tested. After a bacterial solution containing the bacteria to be tested is dispensed to each well, the test plate 102 is introduced into the bacteria test apparatus 100. The bacteria test apparatus 100 is adjusted to a temperature, such as 37° C., at which the bacteria can grow.
The illuminator 101 illuminates the test plate 102 with light. As the illuminator 101, a light source of white light such as a lamp or a light source of light in a specific wavelength range such as an LED may be used. Light passing through each well of the test plate 102 is condensed by the objective lens 103 and measured as an image by the imager 104. […] Further, images of a plurality of points in each well may be captured, or alternatively, a plurality of images of the inside of the culture solution away from the bottom surface of each well of the test plate 102 may be measured. […]
The determiner 1055 acquires the new feature from the arithmetic unit 1051 and outputs the determination result for each well. […] The mean of luminance values is calculated from the image captured at the preset determination time, and a difference from the mean of luminance values at an initial culture stage is calculated. […]

CC1(C)S[C@@H]2[C@H](NC(=O)[C@H](N)c3ccccc3)C(=O)N2[C@H]1C(=O)O [ampicillin]
time variation in mode of luminance values: does not vary
